Measured values from patent publication EP0745595A1, “3-(3-Aryloxyphenyl)-1-(substituted methyl)-s-triazine-2,4,6-oxo or thiotrione herbicidal agents” (American Cyanamid Company, priority 1995, dated 1996).

Columns and labels:
Assay type in all cases: in vivo
[1] = tested on: ECHINOCHLOA ORYZOIDES (ARD.)FRITSCH; test: Preemergence weed control under flooded paddy conditions, ECHORC (Watergrass (Calif.)); settings: preemergence weeds, rated three to four weeks after treatment
Method in brief: (§1)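 Seeds or propagules sown in top 0.5 cm of silt loam in undrained containers, flooded 1.5 to 3 cm throughout. Compounds in aqueous/acetone 50/50 v/v pipetted into flood water at about 0.5, 0.25, 0.125 and 0.063 kg/ha. Visual 0-9 rating versus control after three to four weeks in greenhouse.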

[2] = tested on: ECHINOCHLOA CRUS-GALLI, (L) BEAU; test: Preemergence herbicidal evaluation, ECHCG (Barnyardgrass); settings: four to five weeks after treatment
From the text: (§2) Results of herbicide evaluation are expressed on a rating scale (0-9). The scale is based upon a visual observation of plant stand, vigor, malformation, size, chlorosis and overall plant appearance as compared with a control.
(§3) The preemergence herbicidal activity of the test compounds of the present invention is exemplified by the following tests in which the seeds of a variety of monocotyledonous and dicotyledonous plants are separately mixed with potting soil and planted on top of approximately one inch of soil in separate pint cups. […] The treated cups are then placed on greenhouse benches, watered and cared for in accordance with conventional greenhouse procedures. From four to five weeks after treatment, the tests are terminated and each cup is examined and rated according to the rating system provided in Example 40.
(§4) The compounds evaluated are reported by compound number given in Example 40.

[3] = tested on: GLYCINE MAX(L) MERR. CV. WILLIAMS; test: Preemergence herbicidal evaluation, GLXMAW (Soybean, Williams); settings: four to five weeks after treatment
From the text: as §2, §3, §4

SAGITTARIA PYGMAEA, L. = test: Preemergence weed control under flooded paddy conditions, SAGPY (Arrowhead (Pygmaea)); settings: preemergence weeds, rated three to four weeks after treatment
Method in brief: as §1

CASSIA OBTUSIFOLIA, L. [4] = test: Postemergence herbicidal evaluation, CASOB (Sicklepod); settings: rated four to five weeks after treatment, averaged
Method in brief: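 Greenhouse postemergence test. Seedlings (~2 wk) sprayed at 40 psi; dose ~0.125–0.500 kg/ha in acetone/water (1:1), 0.5% TWEEN 20. Scored 0–9 at 4–5 wk.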

CASSIA OBTUSIFOLIA, L. [5] = test: Preemergence herbicidal evaluation, CASOB (Sicklepod); settings: four to five weeks after treatment
From the text: as §2, §3, §4

[6] = tested on: SETARIA VIRIDIS, (L) BEAU; test: Postemergence herbicidal evaluation, SETVI (Foxtail, Green); settings: rated four to five weeks after treatment, averaged
Method: In the tests, seedling plants are grown in jiffy flats for about two weeks. The test compounds are dispersed in 50/50 acetone/water mixtures containing 0.5% TWEEN®20, a polyoxyethylene sorbitan monolaurate surfactant of Atlas Chemical Industries, in sufficient quantities to provide the equivalent of about 0.125 kg to 0.500 kg per hectare of active compound when applied to the plants through a spray nozzle operating at 40 psi for a predetermined time. After spraying, the plants are placed on greenhouse benches and are cared for in the usual manner, commensurate with conventional greenhouse practices. From four to five weeks after treatment, the seedling plants are examined and rated according to the rating system set forth below. Where more than one test is involved for a given compound, the data are averaged.
Plant species employed in these evaluations are reported by header abbreviation, common name and scientific name.
as §2

[7] = tested on: AMBROSIA ARTEMISIIFOLIA, L.; test: Postemergence herbicidal evaluation, AMBEL (Ragweed, Common); settings: rated four to five weeks after treatment, averaged
Method in brief: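 Common ragweed (Ambrosia artemisiifolia) seedlings were raised in jiffy flats for roughly two weeks, then sprayed postemergence through a nozzle at 40 psi with the test compound dispersed in 50/50 acetone/water carrying 0.5% TWEEN®20. The plants were kept on greenhouse benches under conventional care. Four to five weeks later, injury was rated visually on a 0-9 scale, and repeat tests were averaged.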

CHENOPODIUM ALBUM, L. [8] = test: Preemergence herbicidal evaluation, CHEAL (Lambsquarters, Common); settings: four to five weeks after treatment
Method in brief: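 Preemergence, greenhouse: seed + potting soil sown on ~1 inch soil in cups; aqueous acetone spray, ~0.125–0.50 kg/ha equivalent; rated 0-9 vs control at 4–5 wk.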

CHENOPODIUM ALBUM, L. [9] = test: Postemergence herbicidal evaluation, CHEAL (Lambsquarters, Common); settings: rated four to five weeks after treatment, averaged
Method in brief: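 Seedlings of common lambsquarters (Chenopodium album) were raised in jiffy flats for roughly two weeks, then sprayed postemergence through a nozzle at 40 psi with test compound dispersed in 50/50 acetone/water containing 0.5% TWEEN®20 surfactant. Plants were kept on greenhouse benches under standard care and rated visually on a 0-9 scale versus controls.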

ZEA MAYS L. = test: Preemergence herbicidal evaluation, ZEAMX (Corn, Field); settings: four to five weeks after treatment
From the text: as §2, §3, §4

[10] = tested on: ORYZA SATIVA, L. TEBONNET; test: Rice tolerance to post-transplant applications under flooded paddy conditions, ORYSAT (Rice, Tebonnet); settings: post-transplant rice, rated three to four weeks after treatment;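 note: applied to flooded soil surface three days after transplanting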
Method in brief: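 Two ten-day-old Tebonnet rice seedlings were transplanted into silt loam and kept flooded 1.5 to 3 cm deep. Three days after transplanting, the flood surface received the compound in aqueous/acetone 50/50 v/v at about 0.5, 0.25, 0.125 or 0.063 kg/ha. Injury was rated visually on a 0-9 scale versus control after 3-4 weeks.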

[11] = tested on: ABUTILON THEOPHRASTI, MEDIC.; test: Postemergence herbicidal evaluation, ABUTH (Velvetleaf); settings: rated four to five weeks after treatment, averaged
Method in brief: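 Velvetleaf (Abutilon theophrasti) seedlings were raised in jiffy flats for about two weeks and then sprayed postemergence. The test compound was dispersed in a 50/50 acetone/water mixture containing 0.5% TWEEN®20 and applied through a nozzle operating at 40 psi. Plants were kept on greenhouse benches and rated 0-9 four to five weeks after treatment.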

IPOMOEA SPP. = test: Postemergence herbicidal evaluation, IPOSS (Morningglory spp.); settings: rated four to five weeks after treatment, averaged
Method in brief: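 Seedlings of morningglory (Ipomoea spp.) were raised in jiffy flats for roughly two weeks. They were then sprayed postemergence through a nozzle at 40 psi with test compound dispersed in 50/50 acetone/water containing 0.5% TWEEN®20 surfactant. Plants were kept on greenhouse benches under standard care and visually rated 0-9 against controls four to five weeks after treatment.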

GALIUM APARINE = test: Preemergence herbicidal evaluation, GALAP (Galium); settings: four to five weeks after treatment
From the text: as §2, §3, §4

[12] = tested on: CYPERUS SEROTINUS, ROTTB.; test: Preemergence weed control under flooded paddy conditions, CYPSE (Flatsedge); settings: preemergence weeds, rated three to four weeks after treatment
Method in brief: as §1

SMILES: CCOC(=O)Cn1c(=O)n(C)c(=O)n(-c2cc(Oc3c(F)cc(C(F)(F)F)cc3Cl)ccc2C#N)c1=O [Compound 11, Ethyl 3-{5-[(2-chloro-α,α,α,6-tetrafluoro-p-tolyl)oxy]-2-cyanophenyl}tetrahydro-5-methyl-2,4,6-trioxo-s-triazine-1(2H)-acetate]
- ECHORC herbicidal rating ([1]; Rate 0.063 kg/ha): 9.0
- ECHORC herbicidal rating ([1]; Rate 0.125 kg/ha): 9.0
- ECHORC herbicidal rating ([1]; Rate 0.250 kg/ha): 9.0
- ECHORC herbicidal rating ([1]; Rate 0.500 kg/ha): 9.0
- ECHCG rating ([2]; Rate 0.125 kg/ha): 0.0
- ECHCG rating ([2]; Rate 0.250 kg/ha): 0.0
- ECHCG rating ([2]; Rate 0.500 kg/ha): 0.0
- GLXMAW rating ([3]; Rate 0.125 kg/ha): 0.0
- GLXMAW rating ([3]; Rate 0.250 kg/ha): 0.0
- GLXMAW rating ([3]; Rate 0.500 kg/ha): 0.0
- SAGPY herbicidal rating (SAGITTARIA PYGMAEA, L.; Rate 0.063 kg/ha): 0.0
- SAGPY herbicidal rating (SAGITTARIA PYGMAEA, L.; Rate 0.125 kg/ha): 0.0
- SAGPY herbicidal rating (SAGITTARIA PYGMAEA, L.; Rate 0.250 kg/ha): 0.0
- SAGPY herbicidal rating (SAGITTARIA PYGMAEA, L.; Rate 0.500 kg/ha): 0.0
- CASOB, herbicide rating (0-9) (CASSIA OBTUSIFOLIA, L. [4]; Rate 0.125 kg/ha): 9.0
- CASOB, herbicide rating (0-9) (CASSIA OBTUSIFOLIA, L. [4]; Rate 0.250 kg/ha): 9.0
- CASOB, herbicide rating (0-9) (CASSIA OBTUSIFOLIA, L. [4]; Rate 0.500 kg/ha): 9.0
- CASOB rating (CASSIA OBTUSIFOLIA, L. [5]; Rate 0.125 kg/ha): 0.0
- CASOB rating (CASSIA OBTUSIFOLIA, L. [5]; Rate 0.250 kg/ha): 0.0
- CASOB rating (CASSIA OBTUSIFOLIA, L. [5]; Rate 0.500 kg/ha): 0.0
- SETVI, herbicide rating (0-9) ([6]; Rate 0.125 kg/ha): 9.0
- SETVI, herbicide rating (0-9) ([6]; Rate 0.250 kg/ha): 9.0
- SETVI, herbicide rating (0-9) ([6]; Rate 0.500 kg/ha): 9.0
- AMBEL, herbicide rating (0-9) ([7]; Rate 0.125 kg/ha): 9.0
- AMBEL, herbicide rating (0-9) ([7]; Rate 0.250 kg/ha): 9.0
- AMBEL, herbicide rating (0-9) ([7]; Rate 0.500 kg/ha): 9.0
- CHEAL rating (CHENOPODIUM ALBUM, L. [8]; Rate 0.125 kg/ha): 9.0
- CHEAL rating (CHENOPODIUM ALBUM, L. [8]; Rate 0.250 kg/ha): 9.0
- CHEAL rating (CHENOPODIUM ALBUM, L. [8]; Rate 0.500 kg/ha): 9.0
- CHEAL, herbicide rating (0-9) (CHENOPODIUM ALBUM, L. [9]; Rate 0.125 kg/ha): 9.0
- CHEAL, herbicide rating (0-9) (CHENOPODIUM ALBUM, L. [9]; Rate 0.250 kg/ha): 9.0
- CHEAL, herbicide rating (0-9) (CHENOPODIUM ALBUM, L. [9]; Rate 0.500 kg/ha): 9.0
- ZEAMX rating (ZEA MAYS L.; Rate 0.125 kg/ha): 0.0
- ZEAMX rating (ZEA MAYS L.; Rate 0.250 kg/ha): 0.0
- ZEAMX rating (ZEA MAYS L.; Rate 0.500 kg/ha): 0.0
- ORYSAT herbicidal rating (rice tolerance) ([10]; Rate 0.063 kg/ha): 0.0
- ORYSAT herbicidal rating (rice tolerance) ([10]; Rate 0.125 kg/ha): 0.0
- ORYSAT herbicidal rating (rice tolerance) ([10]; Rate 0.250 kg/ha): 1.0
- ORYSAT herbicidal rating (rice tolerance) ([10]; Rate 0.500 kg/ha): 1.0
- ABUTH, herbicide rating (0-9) ([11]; Rate 0.125 kg/ha): 9.0
- ABUTH, herbicide rating (0-9) ([11]; Rate 0.250 kg/ha): 9.0
- ABUTH, herbicide rating (0-9) ([11]; Rate 0.500 kg/ha): 9.0
- IPOSS, herbicide rating (0-9) (IPOMOEA SPP.; Rate 0.125 kg/ha): 9.0
- IPOSS, herbicide rating (0-9) (IPOMOEA SPP.; Rate 0.250 kg/ha): 9.0
- IPOSS, herbicide rating (0-9) (IPOMOEA SPP.; Rate 0.500 kg/ha): 9.0

SMILES: C#CCn1c(=O)n(CC(=O)OCC)c(=O)n(-c2cc(Oc3ccc(C(F)(F)F)cc3Cl)ccc2[N+](=O)[O-])c1=O [Compound 7, Ethyl 3-{5-[(2-chloro-α,α,α-trifluoro-p-tolyl)oxy]-2-nitrophenyl}tetrahydro-2,4,6-trioxo-5-(2-propynyl)-s-triazine-1(2H)-acetate]
- GALAP rating (GALIUM APARINE; Rate 0.125 kg/ha): 4.0
- GALAP rating (GALIUM APARINE; Rate 0.250 kg/ha): 8.0
- GALAP rating (GALIUM APARINE; Rate 0.500 kg/ha): 9.0
- SAGPY herbicidal rating (SAGITTARIA PYGMAEA, L.; Rate 0.125 kg/ha): 0.0
- SAGPY herbicidal rating (SAGITTARIA PYGMAEA, L.; Rate 0.250 kg/ha): 0.0
- SAGPY herbicidal rating (SAGITTARIA PYGMAEA, L.; Rate 0.500 kg/ha): 0.0
- ORYSAT herbicidal rating (rice tolerance) ([10]; Rate 0.125 kg/ha): 0.0
- ORYSAT herbicidal rating (rice tolerance) ([10]; Rate 0.250 kg/ha): 0.0
- ORYSAT herbicidal rating (rice tolerance) ([10]; Rate 0.500 kg/ha): 1.0
- CYPSE herbicidal rating ([12]; Rate 0.125 kg/ha): 0.0
- CYPSE herbicidal rating ([12]; Rate 0.250 kg/ha): 0.0
